Data reported in EP0349431B1, “Sucrose derivatives” (BEGHIN-SAY SOCIETE ANONYME, priority 1988, dated 1990).

Experiments:
Assay type in all cases: cell-based
[1] = system: souches étudiées (Streptoccus fecalis, Escherichia coli, Proteus morganii, Staphylococcus); assay: Bacteriostatic activity (CMI), overall statement for the strains of Exemple 9; settings: summary sentence in the text: good bacteriostatic activity, all strains of Exemple 9
Experimental: (§1) On a préparé des mélanges de solutions limpides de l'échantillon et du milieu de culture, contenant un adjuvant de dissolution, ajouté à raison de la quantité minimale nécessaire.
(§2) On a introduit les solutions obtenues telles quelles ou diluées dans des tubes stériles sous un volume inférieur ou égal à 2,5 ml, que l'on a ensuite ajusté sinécessaire à 2,5 ml à l'aide d'eau stérile. On a alors ajouté à chaque tube 2,5 ml de bouillon nutritif préparé à concentration double, ensemencé de façon à contenir environ 1000 germes par ml et ayant la composition suivante : peptone bactériologique 10 g extrait de viande de boeuf 5 g chlorure de sodium 5 g eau déminéralisèe Q S P 500 ml pH ajusté à 7,2 à l'aide de potasse. stérilisation par fractions de 50 ml 20 mn à 120°C
Les souches testées sont cultivées sur milieu gélosé "trypticase-soja" dont la compositon de formulation : peptone trypsique de caséine 15 g peptone papaïnique de soja 5 g chlorure de sodium 5 g gélose 15 g eau déminéralisée Q S P 1000 ml pH ajusté à l'aide de potasse à 7,3 stérilisation 20 mn à 120°C. […]

[2] = system: Proteus morganii (ATCC 53185); assay: Bacteriostatic activity (CMI), dilution technique in liquid medium, Exemple 9; settings: read after 24 H incubation at 35°C
Experimental: as §1, §2
(§3) Les souches testées sont cultivées sur milieu gélosé "trypticase-soja" dont la compositon de formulation : peptone trypsique de caséine 15 g peptone papaïnique de soja 5 g chlorure de sodium 5 g gélose 15 g eau déminéralisée Q S P 1000 ml pH ajusté à l'aide de potasse à 7,3 stérilisation 20 mn à 120°C.
(§4) Après incubation 18 H à 35°C on ensemence à l'aide de ces cultures des tubes de milieu liquide "trypticase-soja" de formulation : peptone trypsique de caséine 17 g peptone papaïnique de soja 3 g chlorure de sodium 5 g phosphate dipotassique 2,5 g glucose 2,5 g eau déminéralisée Q S P 1000 ml pH ajusté à 7,3 à l'aide de potasse stérilisation 20 mn à 120°C.
(§5) Après 18 H d'incubation à 35°C, les cultures obtenues sont homogénéisées puis diluées.
(§6) Les quatres souches suivantes ont été testées : • Streptoccus fecalis (ATCC 9790) • Escherichia coli (ATCC 10536) • Proteus morganii (ATCC 53185) • Staphylococcus (ATCC 6538P)
(§7) On a effectué trois essais, en utilisant les gammes de concentrations suivantes de dipalmitate-6,6′-saccharose oxydé
(§8) On a effectué l'incubation des tubes à 35°C. Les lectures ont été faites après 18, 24 et 48 H en comparaison avec des tubes témoins de croissance de chaque microorganisme testé, en présence d'un agent tensio-actif : Tween 80 (marque de fabrique d'Atlas Chemical Industries, Inc) pour l'essai N° 1 et Triton X 100, (marque de fabrique de Rohm & Haas Co) pour les essais N°2 et N°3. Les résultats, donnés dans le Tableau I ci-dessous, relevés après 24 H d'incubation, indiquent la concentration (mg/ml) testée en dipalmitate-6,6′-saccharose oxydé à partir de laquelle on observe une absence de développement bactérien pour chacune des souches étudiées.

[3] = system: Escherichia coli (ATCC 10536); assay: as above; settings: read after 24 H incubation at 35°C
Experimental: as §1, §2, §3, §4, §5, §6, §7, §8

[4] = system: Staphylococcus (ATCC 6538P); assay: as above; settings: for concentration à partir de laquelle on observe une absence de développement bactérien: Triton X 100, read after 24 H incubation at 35°C
Experimental: as §1, §2, §3, §4, §5, §6, §7, §8

[5] = system: Streptoccus fecalis (ATCC 9790); assay: as above; settings: read after 24 H incubation at 35°C
Experimental: as §1, §2, §3, §4, §5, §6, §7, §8

[6] = Essai N°1, Tween 80, tested 0,1 - 1 - 10 mg/ml
[7] = Essai N°2, Triton X 100, tested 0,1 - 1,6 mg/ml
[8] = Essai N°3, Triton X 100, tested 0,006 - 3,2 mg/ml

Substance: dipalmitate-6,6′-saccharose oxydé
- concentration minimale inhibitrice (CMI) [1]: 1,6 mg/ml
- concentration à partir de laquelle on observe une absence de développement bactérien [2, 6]: 1 mg/mL
- concentration à partir de laquelle on observe une absence de développement bactérien [2, 7]: 0,2 mg/ml
- concentration à partir de laquelle on observe une absence de développement bactérien [2, 8]: 0,2 mg/ml
- concentration à partir de laquelle on observe une absence de développement bactérien [3, 6]: 1 mg/mL
- concentration à partir de laquelle on observe une absence de développement bactérien [3, 7]: 0,8 mg/ml
- concentration à partir de laquelle on observe une absence de développement bactérien [3, 8]: 1,6 mg/ml
- concentration à partir de laquelle on observe une absence de développement bactérien ([4]; Essai N°2, tested 0,1 - 1,6 mg/ml): < 0,1 mg/ml
- concentration à partir de laquelle on observe une absence de développement bactérien ([4]; Essai N°3, tested 0,006 - 3,2 mg/ml): 0,01 mg/ml
- concentration suffisante pour inhiber son développement ([4]; summary sentence in the text on Exemple 9): ≤ 0,01 mg/ml
- concentration à partir de laquelle on observe une absence de développement bactérien [5, 6]: 1 mg/mL
- concentration à partir de laquelle on observe une absence de développement bactérien [5, 7]: 0,8 mg/ml
- concentration à partir de laquelle on observe une absence de développement bactérien [5, 8]: 0,8 mg/ml
